Experimental data from ChEMBL document CHEMBL3091311, “Removal of human ether-à-go-go related gene (hERG) K+ channel affinity through rigidity: a case of clofilium analogues” (J Med Chem, 2013).

Each compound was assayed against T1, Voltage-gated inwardly rectifying potassium channel KCNH2 (Homo sapiens, UniProt Q12809) (assay: Displacement of [3H]astemizole from human ERG channel expressed in HEK293 cell membrane after 1 hr by scintillation counting analysis). Conditions: not given.
T1 sequence (Q12809 whole entry): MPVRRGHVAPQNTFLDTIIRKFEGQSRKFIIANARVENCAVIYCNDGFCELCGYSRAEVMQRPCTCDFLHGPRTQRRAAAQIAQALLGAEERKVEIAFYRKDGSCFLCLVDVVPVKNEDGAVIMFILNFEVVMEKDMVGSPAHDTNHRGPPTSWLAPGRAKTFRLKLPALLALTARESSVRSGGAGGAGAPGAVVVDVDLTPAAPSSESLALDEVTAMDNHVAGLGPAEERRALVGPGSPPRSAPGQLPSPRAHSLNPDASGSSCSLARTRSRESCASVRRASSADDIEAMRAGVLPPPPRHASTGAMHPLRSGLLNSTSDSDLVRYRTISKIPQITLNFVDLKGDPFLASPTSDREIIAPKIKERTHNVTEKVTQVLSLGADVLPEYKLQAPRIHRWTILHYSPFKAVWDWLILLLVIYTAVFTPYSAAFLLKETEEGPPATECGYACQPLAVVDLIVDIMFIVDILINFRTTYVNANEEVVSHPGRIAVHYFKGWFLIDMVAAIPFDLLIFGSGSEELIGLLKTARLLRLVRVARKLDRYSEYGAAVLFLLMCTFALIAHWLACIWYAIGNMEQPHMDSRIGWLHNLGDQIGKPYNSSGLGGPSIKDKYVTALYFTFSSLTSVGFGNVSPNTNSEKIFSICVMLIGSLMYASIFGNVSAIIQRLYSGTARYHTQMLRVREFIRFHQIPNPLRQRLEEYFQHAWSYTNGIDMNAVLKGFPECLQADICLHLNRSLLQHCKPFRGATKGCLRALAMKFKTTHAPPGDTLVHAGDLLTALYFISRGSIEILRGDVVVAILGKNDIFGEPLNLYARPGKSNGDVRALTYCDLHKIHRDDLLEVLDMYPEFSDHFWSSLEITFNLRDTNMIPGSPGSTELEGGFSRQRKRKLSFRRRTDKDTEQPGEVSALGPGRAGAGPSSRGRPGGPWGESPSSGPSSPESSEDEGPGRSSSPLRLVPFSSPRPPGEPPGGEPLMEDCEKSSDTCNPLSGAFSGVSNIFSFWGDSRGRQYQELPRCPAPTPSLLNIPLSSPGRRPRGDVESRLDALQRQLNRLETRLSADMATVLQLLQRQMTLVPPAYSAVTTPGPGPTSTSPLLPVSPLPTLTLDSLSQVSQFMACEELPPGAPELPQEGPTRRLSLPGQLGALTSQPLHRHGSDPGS
CCCCN(CC)CC#CCOCc1ccc(Cl)cc1 was tested, and the IC50 was 7370 nM.
Compound CCCCCCCN(CC)C/C=C/CCc1ccc(Cl)cc1 has an IC50 of 238 nM.
CCCCCCCN1CCC(C(=O)c2ccccc2)CC1 showed an IC50 of 124 nM.
In the case of CCCCCCCN(CC)CC#Cc1ccc(Cl)cc1, the IC50 is reported as 4080 nM.
CCCCCCC[N+](CC)(CC)CC#Cc1ccc(Cl)cc1 was tested, and the IC50 was 40 nM.
In the case of CCCCCCCN(CC)CC#CCCc1ccccc1, the IC50 is reported as 4390 nM.
CCCCCCCN(CC)CC#CCCc1ccc(Cl)cc1 showed an IC50 of 765 nM and a Ki of 148 nM.
In the case of CCCCN(CC)CC#CCCc1ccc(C)cc1, the IC50 is reported as 5590 nM.
Compound CCCCN(CC)C/C=C/c1ccc(Cl)cc1 has an IC50 of 1050 nM.
With CCCCCCCN(CC)C/C=C/c1ccc(Cl)cc1 the IC50 was 243 nM.
Compound CCCCCCCN(CC)CC#CCOC(c1ccccc1)c1ccccc1 has an IC50 of 970 nM.

Each compound was assayed against T1, Voltage-gated inwardly rectifying potassium channel KCNH2 (assay: Inhibition of human ERG channel expressed in HEK293 cells after 15 mins by whole-cell patch clamp technique). Conditions: not given.
Format: cell-based
Work on CCCCCCCN(CC)CC#CCCc1ccc(Cl)cc1 yielded an IC50 of 53 nM.

The compounds below were run against T2, hERG (KCNH2) (Homo sapiens, UniProt Q12809) (assay: Displacement of [3H]astemizole from human ERG channel expressed in HEK293 cell membrane at 10 uM after 1 hr by scintillation counting analysis). Conditions: membranes of HEK293 cells that express hERG, probe [3H]astemizole.
T2 sequence (Q12809 whole entry): as above
With CCCCN(CC)CC#CCCc1ccccc1 the inhibition at 1 h, 10 µM was 48%.
Work on CCCCN(CC)CC#CC#Cc1ccc(C)cc1 yielded an inhibition at 1 h, 10 µM of 47%.

The compounds below were run against T2, hERG (KCNH2) (assay: Ratio of Ki for human ERG channel expressed in HEK293 cell membrane after 1 hr by scintillation counting analysis to IC50 for human ERG channel expressed in HEK293 cells after 15 mins by whole-cell patch clamp technique). Conditions: not given.
Format: cell membranes
In the case of CCCCCCCN(CC)CC#CCCc1ccc(Cl)cc1, the selectivity ratio is reported as 2.
